Columns and labels:
[1] = cited from earlier work; for secretion of tears and tear proteins: Patent Literature 1
[2] = tested on: normal male cynomolgus monkeys; test: Tear film break-up time (TBUT) after single ocular instillation (Tests 1 and 2); assay type: in vivo, cynomolgus monkey; settings: for extension of TBUT: single ocular instillation 1% (w/v) ophthalmic solution, FIG. 2
[3] = tested on: dry-eye model SD (Sprague-Dawley) rat; test: Quantity of tears by Schirmer strip in the exorbital-lacrimal-gland-removed dry-eye model (Tests 3 and 4); assay type: in vivo; settings: for Incremental difference in Schirmer's test at 0.5 hours after ocular instillation / Incremental difference in Schirmer's test at 8 hours after ocular instillation: difference from vehicle-instilled group, rat dry-eye model
Method: A somnopentyl injection five-fold diluted with physiological saline was intraperitoneally administered to a normal male SD (Sprague-Dawley) rat by 2.5 mL/kg, and the rat was given general anesthesia, followed by keeping the anesthetized state by inhalation of about 1 to 3% isoflurane. Then, the skin on each cheek was incised to remove the exorbital lacrimal gland, followed by suturation with a Michel suture clamp. In this test, an individual wherein reduction of tears was confirmed after 13 weeks from the removal of exorbital lacrimal gland was included as the experimental animal.
Half an hour after treatment of general anesthesia, Schirmer strip (1 mm×17 mm) was inserted to conjunctival sac of the lower eyelid of a rat, and then after 1 minute of the insertion, the wet part of the Schirmer strip was measured in increments of 0.5 mm. (N=14 or 16 eyes)
The quantity of tears was measured in a similar manner to Test 3. (N=10 eyes)

[4] = tested on: normal male cynomolgus monkeys; test: Intraocular pressure test, twice daily repeated instillation (Test 5); assay type: in vivo, cynomolgus monkey; settings: 0.01% and 0.1% ophthalmic solutions, twice daily repeatedly, Day 1, 7, 14; FIG. 4
Method: Specifically, one drop of 0.4% oxybuprocaine hydrochloride ophthalmic solution (trade name: Benoxil (registered trademark) ophthalmic solution 0.4%) was instilled to the right eye so as to provide surface anesthesia, and then the intraocular pressure was measured three times with Mentor tonometer (applanation), followed by calculation of the average. (N=6 eyes)

β1 adrenergic receptors = β1 adrenergic receptors (Homo sapiens, UniProt P08588); settings: cited from earlier work
Chain of β1 adrenergic receptors (P08588 whole entry): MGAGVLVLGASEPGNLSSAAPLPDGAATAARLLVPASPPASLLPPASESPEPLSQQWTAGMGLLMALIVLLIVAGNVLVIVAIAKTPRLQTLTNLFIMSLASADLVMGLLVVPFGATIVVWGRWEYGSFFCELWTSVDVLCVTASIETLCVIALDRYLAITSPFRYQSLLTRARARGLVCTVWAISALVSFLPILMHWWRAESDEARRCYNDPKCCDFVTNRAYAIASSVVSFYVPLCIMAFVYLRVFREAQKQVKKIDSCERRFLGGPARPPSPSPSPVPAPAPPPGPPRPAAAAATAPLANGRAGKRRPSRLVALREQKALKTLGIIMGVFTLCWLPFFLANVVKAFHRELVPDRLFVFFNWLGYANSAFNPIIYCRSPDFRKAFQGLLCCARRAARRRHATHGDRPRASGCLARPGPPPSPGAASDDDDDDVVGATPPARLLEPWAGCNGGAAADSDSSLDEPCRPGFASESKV

[5] = 0.001% ophthalmic solution, 8 hours
[6] = 0.01% ophthalmic solution, 8 hours
[7] = 0.1% ophthalmic solution, 8 hours
[8] = 1% ophthalmic solution, 8 hours

SMILES	secretion of tears and tear proteins [1]	extension of TBUT [2]	Incremental difference in Schirmer's test at 0.5 hours after ocular instillation ([3]; 0.001% ophthalmic solution)	Incremental difference in Schirmer's test at 8 hours after ocular instillation [3, 5]	Incremental difference in Schirmer's test at 0.5 hours after ocular instillation ([3]; 0.01% ophthalmic solution)	Incremental difference in Schirmer's test at 8 hours after ocular instillation [3, 6]	Incremental difference in Schirmer's test at 0.5 hours after ocular instillation ([3]; 0.1% ophthalmic solution)	Incremental difference in Schirmer's test at 8 hours after ocular instillation [3, 7]	Incremental difference in Schirmer's test at 0.5 hours after ocular instillation ([3]; 1% ophthalmic solution)	Incremental difference in Schirmer's test at 8 hours after ocular instillation [3, 8]	other results
CC(C)(C)NCC(O)c1cc(Cl)c(N)c(Cl)c1 (stereo not shown) [clenbuterol]	confirmed to enhance	not confirmed	2.0 mm/min	0.3 mm/min	2.7 mm/min	1.1 mm/min	3.6 mm/min	2.4 mm/min	3.0 mm/min	3.9 mm/min	–
CC(Cc1ccc(O)cc1)NCC(O)c1cc(O)cc(O)c1 (stereo not shown) [fenoterol]	confirmed to enhance	not confirmed	1.8 mm/min	0.0 mm/min	4.8 mm/min	0.2 mm/min	6.1 mm/min	0.9 mm/min	3.6 mm/min	1.1 mm/min	–
COc1ccc(CC(C)(C)NC[C@H](O)c2cc(O)cc3c2OCC(=O)N3)cc1 [olodaterol, 6-hydroxy-8-((1R)-1-hydroxy-2-{[2-(4-methoxyphenyl)-1,1-dimethylethyl]amino}-ethyl)-2H-1,4-benzoxazin-3-(4H)-one]	–	–	7.2 mm/min	2.1 mm/min	6.9 mm/min	2.8 mm/min	–	–	–	–	intraocular pressure [4]: did not show increase and/or decrease; effect of stabilizing tear film ([2]; low concentration of 0.0001%, FIG. 1): confirmed to show the effect of stabilizing tear film; TBUT-extending effect ([2]; single ocular instillation 0.0001, 0.001, 0.01% (w/v), 20 μL/eye, 15, 30, 60 minutes, FIG. 1): confirmed in a concentration-dependent manner; Incremental difference in Schirmer's test at 0.5 hours after ocular instillation ([3]; 0.00001% ophthalmic solution): 2.8 mm/min; Incremental difference in Schirmer's test at 8 hours after ocular instillation ([3]; 0.00001% ophthalmic solution, 8 hours): 0.4 mm/min; Incremental difference in Schirmer's test at 0.5 hours after ocular instillation ([3]; 0.0001% ophthalmic solution): 6.0 mm/min; Incremental difference in Schirmer's test at 8 hours after ocular instillation ([3]; 0.0001% ophthalmic solution, 8 hours): 1.7 mm/min; lacrimal secretion at 8 hours after ocular instillation ([3]; 0.0001 to 0.01% instilled groups, 8 hours, FIG. 3): highly enhanced; increase of tear volumes at 16 hours after ocular instillation ([3]; 0.001 and 0.01% instilled groups, 16 hours, FIG. 3): increase of tear volumes was observed; lacrimal secretion ([3]; olodaterol-instilled groups 0.00001 to 0.01%, FIG. 3): enhanced; intrinsic activity against β1 adrenergic receptors (β1 adrenergic receptors): weak intrinsic activity
CC(C)(C)NCC(O)c1ccc(O)c(CO)c1 (stereo not shown) [salbutamol]	–	–	–	–	–	–	–	–	–	–	lacrimal secretion ([1]; Patent Literature 2): confirmed to enhance lacrimal secretion; effects on the treatment of dry eye ([1]; Patent Literature 3): did not have sufficient effects

Source: patent publication US12678443B2, “Medicament for preventing and/or treating dry eye” (Santen Pharmaceutical Co., Ltd., priority 2021, dated 2026)
